Data from US6914045B2, “Glycopeptide antibiotics” (Wyeth Holdings Corporation, priority 2001, dated 2005).

Experiments:
Test in all cases: in vitro antibacterial evaluation, MIC by broth dilution
Format in all cases: cell-based
Enterococcus sp. = settings: broth dilution, 18 hours at 35° C.
Method: (§1) Methods for in vitro Antibacterial Evaluation (Table 1)
(§2) The minimum inhibitory concentration (MIC), the lowest concentration of the antibiotic which inhibits growth of the test organism, is determined by the broth dilution method using Muller-Hinton II […] (Baltimore Biological Laboratories) following the recommendations of the National Committee for Clinical Laboratory Standards [Methods for dilution antimicrobial susceptibility tests for bacteria that grow aerobically, approved standard M7-A2, National Committee for Clinical Laboratory Standards, Villanova, Pa.].
(§3) An inoculum level of 5×10^5 CFU/mL, and a range of antibiotic concentrations (64-0.06 μg/mL) is used. […] The test organisms include a spectrum of Gram-positive bacteria comprised of Staphylococcus sp., Streptococcus sp. and Enterococcus sp. These organisms include recent clinical isolates that are resistant to methicillin, penicillin and/or vancomycin.

Staphylococcus sp. = settings: broth dilution, 18 hours at 35° C.; for MIC Staphylococcus aureus (GC 1131): strain GC 1131; for MIC Staphylococcus aureus (ATCC 29213): strain ATCC 29213; for MIC Staphylococcus aureus (GC 3051): strain GC 3051; for MIC Staphylococcus aureus (GC 3053): strain GC 3053; for MIC Staphylococcus aureus (GC 4541): strain GC 4541; for MIC Staphylococcus aureus (GC 4542): strain GC 4542; for MIC Staphylococcus aureus-SMITH (GC 4543): strain GC 4543; for MIC Staphylococcus aureus (GC 4544): strain GC 4544; for MIC Staphylococcus aureus (GC 4545): strain GC 4545; for MIC Staphylococcus haemolyticus (GC 4546): strain GC 4546; for MIC Coagulase Negative Staphylococcus (GC 4547): strain GC 4547; for MIC Coagulase Negative Staphylococcus (GC 4548): strain GC 4548; for MIC Coagulase Negative Staphylococcus (GC 4549): strain GC 4549; for MIC Coagulase Negative Staphylococcus (GC 4551): strain GC 4551
Method: as §1, §2, §3

Streptococcus sp. = settings: broth dilution, 18 hours at 35° C.
Method: as §1, §2, §3

Escherichia coli = settings: 18 hours at 35° C.
[1] = inoculum 5×10^5 CFU/mL, strain ATCC 29212
[2] = inoculum 5×10^5 CFU/mL, strain GC 2242
[3] = inoculum 5×10^5 CFU/mL, strain GC 2243
[4] = inoculum 5×10^5 CFU/mL, strain GC 2691
[5] = inoculum 5×10^5 CFU/mL, strain GC 3059
[6] = inoculum 5×10^5 CFU/mL, strain GC 4552
[7] = inoculum 5×10^5 CFU/mL, strain GC 4553
[8] = inoculum 5×10^5 CFU/mL, strain GC 4554
[9] = inoculum 5×10^5 CFU/mL, strain GC 4556
[10] = inoculum 5×10^5 CFU/mL, strain GC 4557
[11] = inoculum 5×10^5 CFU/mL, strain GC 4558
[12] = inoculum 5×10^5 CFU/mL, strain GC 6189
[13] = inoculum 5×10^5 CFU/mL, strain ATCC 6301
[14] = inoculum 5×10^5 CFU/mL, strain GC 1894
[15] = inoculum 5×10^5 CFU/mL, strain GC 4563
[16] = inoculum 5×10^5 CFU/mL, strain GC 4564
[17] = inoculum 5×10^5 CFU/mL, strain GC 4565

N=C1NCC(C(O)C2NC(=O)C(Cc3ccc(OC4OC(CO)C(OC5OC6COC(Cc7ccccc7)OC6C(O)C5O)C(O)C4O)cc3)NC(=O)C(CC3CCCCC3)NC(=O)CNC(=O)C(CO)NC(=O)C(C(O)C3CNC(=N)N3C3OC(CO)C(O)C(O)C3O)NC2=O)N1 (stereo not drawn) [Example 200]
4 µg/mL: MIC Enterococcus avium (GC 4558) (Enterococcus sp.) | MIC Enterococcus faecalis (ATCC 29212) (Enterococcus sp.) | MIC Enterococcus faecalis (GC 2691) (Enterococcus sp.) | MIC Enterococcus faecalis (GC 4553) (Enterococcus sp.) | MIC Enterococcus faecalis (GC 4554) (Enterococcus sp.) | MIC Enterococcus faecium (GC 2243) (Enterococcus sp.) | MIC Enterococcus faecium (GC 4556) (Enterococcus sp.) | MIC Enterococcus faecalis (ATCC 29212) (Enterococcus sp.; [1]) | MIC Enterococcus faecium (GC 2243) (Enterococcus sp.; [3]) | MIC Enterococcus faecalis (GC 2691) (Enterococcus sp.; [4]) | MIC Enterococcus faecalis (GC 4553) (Enterococcus sp.; [7]) | MIC Enterococcus faecalis (GC 4554) (Enterococcus sp.; [8]) | MIC Enterococcus faecium (GC 4556) (Enterococcus sp.; [9]) | MIC Enterococcus avium (GC 4558) (Enterococcus sp.; [11])
2 µg/mL: MIC Enterococcus faecalis (GC 3059) (Enterococcus sp.) | MIC Enterococcus faecalis (GC 4552) (Enterococcus sp.) | MIC Enterococcus faecalis (GC 6189) (Enterococcus sp.) | MIC Enterococcus faecium (GC 4557) (Enterococcus sp.) | MIC Enterococcus faecalis (GC 3059) (Enterococcus sp.; [5]) | MIC Enterococcus faecalis (GC 4552) (Enterococcus sp.; [6]) | MIC Enterococcus faecium (GC 4557) (Enterococcus sp.; [10]) | MIC Enterococcus faecalis (GC 6189) (Enterococcus sp.; [12]) | MIC Staphylococcus aureus (GC 1131) (Staphylococcus sp.; inoculum 5×10^5 CFU/mL) | MIC Staphylococcus aureus (GC 1131) (Staphylococcus sp.) | MIC Staphylococcus aureus (GC 3053) (Staphylococcus sp.) | MIC Staphylococcus aureus (GC 4544) (Staphylococcus sp.) | MIC Coagulase Negative Staphylococcus (GC 4547) (Staphylococcus sp.) | MIC Coagulase Negative Staphylococcus (GC 4551) (Staphylococcus sp.)
0.5 µg/mL: MIC Enterococcus faecalis (GC 2242) (Enterococcus sp.) | MIC Enterococcus faecalis (GC 2242) (Enterococcus sp.; [2])
0.12 µg/mL: MIC Streptococcus agalactiae (GC 4564) (Streptococcus sp.) | MIC Streptococcus agalactiae (GC 4564) (Streptococcus sp.; [16])
<0.06 µg/mL: MIC Streptococcus pneumoniae (ATCC 6301) (Streptococcus sp.) | MIC Streptococcus pneumoniae (GC 1894) (Streptococcus sp.) | MIC Streptococcus pneumoniae (GC 4565) (Streptococcus sp.) | MIC Streptococcus pyogenes (GC 4563) (Streptococcus sp.) | MIC Streptococcus pneumoniae (ATCC 6301) (Streptococcus sp.; [13]) | MIC Streptococcus pneumoniae (GC 1894) (Streptococcus sp.; [14]) | MIC Streptococcus pyogenes (GC 4563) (Streptococcus sp.; [15]) | MIC Streptococcus pneumoniae (GC 4565) (Streptococcus sp.; [17])
32 µg/mL: MIC Escherichia coli (ATCC 25922) (Escherichia coli) | MIC Escherichia coli (GC 4559) (Escherichia coli)
1 µg/mL: MIC Staphylococcus aureus (ATCC 29213) (Staphylococcus sp.) | MIC Staphylococcus aureus (GC 3051) (Staphylococcus sp.) | MIC Staphylococcus aureus (GC 4541) (Staphylococcus sp.) | MIC Staphylococcus aureus (GC 4542) (Staphylococcus sp.) | MIC Staphylococcus aureus-SMITH (GC 4543) (Staphylococcus sp.) | MIC Staphylococcus aureus (GC 4545) (Staphylococcus sp.) | MIC Staphylococcus haemolyticus (GC 4546) (Staphylococcus sp.) | MIC Coagulase Negative Staphylococcus (GC 4548) (Staphylococcus sp.) | MIC Coagulase Negative Staphylococcus (GC 4549) (Staphylococcus sp.) | MIC Escherichia coli (GC 4560) (Escherichia coli)

Cc1ccc(Oc2cccc(C3OCC4OC(OC5C(CO)OC(Oc6ccc(CC7NC(=O)C(C(C)c8ccccc8)NC(=O)CNC(=O)C(CO)NC(=O)C(C(O)C8CNC(=N)N8C8OC(CO)C(O)C(O)C8O)NC(=O)C(C(O)C8CNC(=N)N8)NC7=O)cc6I)C(O)C5O)C(O)C(O)C4O3)c2)cc1 (stereo not drawn) [Example 197]
16 µg/mL: MIC Enterococcus avium (GC 4558) (Enterococcus sp.) | MIC Enterococcus avium (GC 4558) (Enterococcus sp.; [11]) | MIC Staphylococcus aureus (GC 1131) (Staphylococcus sp.; inoculum 5×10^5 CFU/mL) | MIC Staphylococcus aureus (GC 1131) (Staphylococcus sp.) | MIC Staphylococcus aureus (GC 4541) (Staphylococcus sp.) | MIC Staphylococcus aureus-SMITH (GC 4543) (Staphylococcus sp.) | MIC Coagulase Negative Staphylococcus (GC 4551) (Staphylococcus sp.) | MIC Streptococcus agalactiae (GC 4564) (Streptococcus sp.) | MIC Streptococcus pyogenes (GC 4563) (Streptococcus sp.) | MIC Streptococcus pyogenes (GC 4563) (Streptococcus sp.; [15]) | MIC Streptococcus agalactiae (GC 4564) (Streptococcus sp.; [16]) | MIC Escherichia coli (GC 4560) (Escherichia coli)
8 µg/mL: MIC Enterococcus faecium (GC 4557) (Enterococcus sp.) | MIC Enterococcus faecium (GC 4557) (Enterococcus sp.; [10]) | MIC Coagulase Negative Staphylococcus (GC 4548) (Staphylococcus sp.) | MIC Coagulase Negative Staphylococcus (GC 4549) (Staphylococcus sp.) | MIC Streptococcus pneumoniae (GC 1894) (Streptococcus sp.) | MIC Streptococcus pneumoniae (GC 4565) (Streptococcus sp.) | MIC Streptococcus pneumoniae (GC 1894) (Streptococcus sp.; [14]) | MIC Streptococcus pneumoniae (GC 4565) (Streptococcus sp.; [17])
4 µg/mL: MIC Coagulase Negative Staphylococcus (GC 6257) (Staphylococcus sp.; strain GC 6257) | MIC Streptococcus pneumoniae (ATCC 6301) (Streptococcus sp.) | MIC Streptococcus pneumoniae (ATCC 6301) (Streptococcus sp.; [13])
>64 µg/mL: MIC Enterococcus faecalis (ATCC 29212) (Enterococcus sp.) | MIC Enterococcus faecalis (GC 2242) (Enterococcus sp.) | MIC Enterococcus faecalis (GC 2691) (Enterococcus sp.) | MIC Enterococcus faecalis (GC 3059) (Enterococcus sp.) | MIC Enterococcus faecalis (GC 4552) (Enterococcus sp.) | MIC Enterococcus faecalis (GC 4554) (Enterococcus sp.) | MIC Enterococcus faecium (GC 4556) (Enterococcus sp.) | MIC Enterococcus faecalis (ATCC 29212) (Enterococcus sp.; [1]) | MIC Enterococcus faecalis (GC 2242) (Enterococcus sp.; [2]) | MIC Enterococcus faecalis (GC 2691) (Enterococcus sp.; [4]) | MIC Enterococcus faecalis (GC 3059) (Enterococcus sp.; [5]) | MIC Enterococcus faecalis (GC 4552) (Enterococcus sp.; [6]) | MIC Enterococcus faecalis (GC 4554) (Enterococcus sp.; [8]) | MIC Enterococcus faecium (GC 4556) (Enterococcus sp.; [9])
32 µg/mL: MIC Staphylococcus aureus (ATCC 29213) (Staphylococcus sp.) | MIC Staphylococcus aureus (GC 4544) (Staphylococcus sp.) | MIC Staphylococcus aureus (GC 4545) (Staphylococcus sp.) | MIC Staphylococcus haemolyticus (GC 4546) (Staphylococcus sp.) | MIC Coagulase Negative Staphylococcus (GC 4547) (Staphylococcus sp.) | MIC Escherichia coli (ATCC 25922) (Escherichia coli)
64 µg/mL: MIC Enterococcus faecalis (GC 4553) (Enterococcus sp.) | MIC Enterococcus faecalis (GC 6189) (Enterococcus sp.) | MIC Enterococcus faecium (GC 2243) (Enterococcus sp.) | MIC Enterococcus faecium (GC 2243) (Enterococcus sp.; [3]) | MIC Enterococcus faecalis (GC 4553) (Enterococcus sp.; [7]) | MIC Enterococcus faecalis (GC 6189) (Enterococcus sp.; [12]) | MIC Staphylococcus aureus (GC 3051) (Staphylococcus sp.) | MIC Staphylococcus aureus (GC 3053) (Staphylococcus sp.) | MIC Staphylococcus aureus (GC 4542) (Staphylococcus sp.) | MIC Escherichia coli (GC 4559) (Escherichia coli)
